Results reported in US20250195483A1, “SPIRO PIPERIDINE DERIVATIVES AS INHIBITORS OF APOL1 AND METHODS OF USING SAME” (Vertex Pharmaceuticals Incorporated, priority 2022, published 2025).

Target: T1, APOL1 (Homo sapiens, UniProt O14791)
T1 sequence (O14791 1-398): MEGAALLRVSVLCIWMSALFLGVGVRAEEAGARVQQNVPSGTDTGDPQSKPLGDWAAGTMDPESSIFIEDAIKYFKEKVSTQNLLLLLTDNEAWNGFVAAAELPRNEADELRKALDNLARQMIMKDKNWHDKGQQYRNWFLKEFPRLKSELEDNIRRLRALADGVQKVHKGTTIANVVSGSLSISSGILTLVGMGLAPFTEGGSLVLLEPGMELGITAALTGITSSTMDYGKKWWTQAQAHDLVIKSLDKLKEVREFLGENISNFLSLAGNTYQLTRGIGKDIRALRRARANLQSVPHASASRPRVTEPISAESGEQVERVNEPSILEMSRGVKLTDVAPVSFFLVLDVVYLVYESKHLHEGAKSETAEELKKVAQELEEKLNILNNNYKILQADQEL
Assay: MultiTox-Fluor Multiplex Cytotoxicity Assay, tet-inducible APOL1 T-REx-HEK293 cells (G0, G1 or G2 clone not specified for Table 20)
Format: cell-based
Details: tet-induced, 24 hours with compound, ratio of dead to live cells, read-out: IP50 (i.e., IC50 for cell proliferation)
Procedure, shortened: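 HEK293 T-REx cells with tet-inducible APOL1 G0, G1 or G2 clone, 23,400/well, treated with tetracycline plus compound (top 10 μM, 10-point 3-fold, duplicate) for 24 h at 37° C. MultiTox-Fluor dead/live fluorescence ratio, normalized to no-tet (100% viability) and 50 ng/mL tet (0% viability) controls, then curve-fitted.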

CS(=O)(=O)c1ccc(CN2CCC3(CC2)OC(C(N)=O)c2ccc(Cl)cc23)cc1 (stereo not shown) [Compound 223]
IC50: 50 to 500 nM

CS(=O)(=O)c1ccc(CN2CCC3(CC2)OC(C(N)=O)c2ccc(Cl)cc23)c(F)c1 (stereo not shown) [Compound 224]
IC50: ≥ 500 nM

NC(=O)c1ccc(CN2CCC3(CC2)OC(C(N)=O)c2ccc(Cl)cc23)cc1 (stereo not shown) [Compound 225]
IC50: ≤ 50 nM

NC(=O)C1OC2(CCN(Cc3cn[nH]c3)CC2)c2cc(Cl)ccc21 (stereo not shown) [Compound 226, 5-chloro-1′-(1H-pyrazol-4-ylmethyl)spiro[1H-isobenzofuran-3,4′-piperidine]-1-carboxamide]
IC50: ≤ 50 nM

Cc1ccc(CN2CCC3(CC2)OC(C(N)=O)c2ccc(Cl)cc23)cn1 (stereo not shown) [Compound 227]
IC50: ≤ 50 nM

NC(=O)C1OC2(CCN(Cc3cnn4cccnc34)CC2)c2cc(Cl)ccc21 (stereo not shown) [Compound 228]
IC50: 50 to 500 nM

NC(=O)C1OC2(CCN(Cc3c[nH]c4ncncc34)CC2)c2cc(Cl)ccc21 (stereo not shown) [Compound 229]
IC50: ≥ 500 nM

CN1C(=O)Cc2ccc(CN3CCC4(CC3)OC(C(N)=O)c3ccc(Cl)cc34)cc21 (stereo not shown) [Compound 230]
IC50: ≤ 50 nM

Cc1cc2ncc(CN3CCC4(CC3)OC(C(N)=O)c3ccc(Cl)cc34)cn2n1 (stereo not shown) [Compound 231]
IC50: 50 to 500 nM

NC(=O)C1OC2(CCN(Cc3c[nH]c4nccnc34)CC2)c2cc(Cl)ccc21 (stereo not shown) [Compound 232]
IC50: ≤ 50 nM

CNC(=O)c1ccc(CN2CCC3(CC2)OC(C(N)=O)c2ccc(Cl)cc23)cc1 (stereo not shown) [Compound 233]
IC50: ≤ 50 nM

NC(=O)C1OC2(CCN(Cc3cnc[nH]3)CC2)c2cc(Cl)ccc21 (stereo not shown) [Compound 234]
IC50: ≤ 50 nM

NC(=O)C1OC2(CCN(Cc3cnn(C4CCOCC4)c3)CC2)c2cc(Cl)ccc21 (stereo not shown) [Compound 235]
IC50: ≤ 50 nM

COCCn1cc(CN2CCC3(CC2)OC(C(N)=O)c2ccc(Cl)cc23)cn1 (stereo not shown) [Compound 236]
IC50: 50 to 500 nM

Cc1noc2ncc(CN3CCC4(CC3)OC(C(N)=O)c3ccc(Cl)cc34)cc12 (stereo not shown) [Compound 237]
IC50: 50 to 500 nM

NC(=O)C1OC2(CCN(Cc3cnc4c(c3)COCC4)CC2)c2cc(Cl)ccc21 (stereo not shown) [Compound 238]
IC50: ≥ 500 nM

NC(=O)C1OC2(CCN(Cc3cnn(-c4cccnc4)c3)CC2)c2cc(Cl)ccc21 (stereo not shown) [Compound 239]
IC50: ≤ 50 nM

NC(=O)c1cccc(CN2CCC3(CC2)OC(C(N)=O)c2ccc(Cl)cc23)c1F (stereo not shown) [Compound 240]
IC50: ≥ 500 nM

CC1(n2cc(CN3CCC4(CC3)OC(C(N)=O)c3ccc(Cl)cc34)cn2)CCS(=O)(=O)C1 (stereo not shown) [Compound 241]
IC50: ≥ 500 nM

NC(=O)C1OC2(CCN(Cc3cc(C4CC4)[nH]n3)CC2)c2cc(Cl)ccc21 (stereo not shown) [Compound 242]
IC50: 50 to 500 nM

NC(=O)C1OC2(CCN(Cc3ccc(S(N)(=O)=O)cc3F)CC2)c2cc(Cl)ccc21 (stereo not shown) [Compound 243]
IC50: 50 to 500 nM

CNc1ncc(CN2CCC3(CC2)OC(C(N)=O)c2ccc(Cl)cc23)cn1 (stereo not shown) [Compound 244]
IC50: ≤ 50 nM

NC(=O)c1cnc(CN2CCC3(CC2)OC(C(N)=O)c2ccc(Cl)cc23)cn1 (stereo not shown) [Compound 245]
IC50: 50 to 500 nM

COC(=O)c1ccc(CN2CCC3(CC2)OC(C(N)=O)c2ccc(Cl)cc23)cn1 (stereo not shown) [Compound 246]
IC50: ≤ 50 nM

Cc1cc(CN2CCC3(CC2)OC(C(N)=O)c2ccc(Cl)cc23)nn1C (stereo not shown) [Compound 247]
IC50: ≥ 500 nM

NC(=O)C1OC2(CCN(Cc3c[nH]c4cnccc34)CC2)c2cc(Cl)ccc21 (stereo not shown) [Compound 248]
IC50: ≤ 50 nM

NC(=O)C1OC2(CCN(Cc3cc4n(n3)CCOC4)CC2)c2cc(Cl)ccc21 (stereo not shown) [Compound 249]
IC50: ≥ 500 nM

COC(=O)c1ccc(CN2CCC3(CC2)OC(C(N)=O)c2ccc(Cl)cc23)nc1 (stereo not shown) [Compound 250]
IC50: 50 to 500 nM

NC(=O)C1OC2(CCN(Cc3cnc(C4CC4)o3)CC2)c2cc(Cl)ccc21 (stereo not shown) [Compound 251]
IC50: 50 to 500 nM

NC(=O)C1OC2(CCN(Cc3cncnc3)CC2)c2cc(Cl)ccc21 (stereo not shown) [Compound 252]
IC50: ≥ 500 nM

Cn1cc(CN2CCC3(CC2)OC(C(N)=O)c2ccc(Cl)cc23)ccc1=O (stereo not shown) [Compound 253]
IC50: 50 to 500 nM

NC(=O)C1OC2(CCN(Cc3cnn4c3NCCC4)CC2)c2cc(Cl)ccc21 (stereo not shown) [Compound 254]
IC50: ≥ 500 nM

NC(=O)C1OC2(CCN(Cc3cocn3)CC2)c2cc(Cl)ccc21 (stereo not shown) [Compound 255]
IC50: ≥ 500 nM

NC(=O)C1OC2(CCN(Cc3cnc(N)nc3)CC2)c2cc(Cl)ccc21 (stereo not shown) [Compound 256]
IC50: 50 to 500 nM

NC(=O)C1OC2(CCN(Cc3cnn(C4CC4)c3N)CC2)c2cc(Cl)ccc21 (stereo not shown) [Compound 257]
IC50: 50 to 500 nM

Cc1cc(CN2CCC3(CC2)OC(C(N)=O)c2ccc(Cl)cc23)on1 (stereo not shown) [Compound 258]
IC50: ≥ 500 nM

NC(=O)C1OC2(CCN(Cc3ccno3)CC2)c2cc(Cl)ccc21 (stereo not shown) [Compound 259]
IC50: ≥ 500 nM

Cc1ncc(CN2CCC3(CC2)OC(C(N)=O)c2ccc(Cl)cc23)o1 (stereo not shown) [Compound 260]
IC50: 50 to 500 nM

Cc1cc(CN2CCC3(CC2)OC(C(N)=O)c2ccc(Cl)cc23)ccn1 (stereo not shown) [Compound 261]
IC50: 50 to 500 nM

NC(=O)C1OC2(CCN(Cc3c[nH]c4ccncc34)CC2)c2cc(Cl)ccc21 (stereo not shown) [Compound 264]
IC50: ≥ 500 nM

Cc1cc(CN2CCC3(CC2)OC(C(N)=O)c2ccc(Cl)cc23)no1 (stereo not shown) [Compound 265]
IC50: ≥ 500 nM

NC(=O)c1cccc(CN2CCC3(CC2)OC(C(N)=O)c2ccc(Cl)cc23)c1 (stereo not shown) [Compound 266]
IC50: ≥ 500 nM

CC(C)(C)c1ncc(CN2CCC3(CC2)OC(C(N)=O)c2ccc(Cl)cc23)cn1 (stereo not shown) [Compound 267]
IC50: ≥ 500 nM

Cc1cccc(CN2CCC3(CC2)OC(C(N)=O)c2ccc(Cl)cc23)n1 (stereo not shown) [Compound 268]
IC50: ≥ 500 nM

Cn1ccc(CN2CCC3(CC2)OC(C(N)=O)c2ccc(Cl)cc23)cc1=O (stereo not shown) [Compound 269]
IC50: ≥ 500 nM

NC(=O)C1OC2(CCN(Cc3ccc[nH]c3=O)CC2)c2cc(Cl)ccc21 (stereo not shown) [Compound 270]
IC50: ≥ 500 nM

Cn1cc(CN2CCC3(CC2)OC(C(N)=O)c2ccc(Cl)cc23)c(=O)n(C)c1=O (stereo not shown) [Compound 271]
IC50: ≥ 500 nM

NC(=O)C1OC2(CCN(Cc3cnccn3)CC2)c2cc(Cl)ccc21 (stereo not shown) [Compound 272]
IC50: ≥ 500 nM

Cn1cnc(CN2CCC3(CC2)OC(C(N)=O)c2ccc(Cl)cc23)c1 (stereo not shown) [Compound 273]
IC50: ≥ 500 nM

NC(=O)C1OC2(CCN(Cc3ccc(F)c(S(N)(=O)=O)c3)CC2)c2cc(Cl)ccc21 (stereo not shown) [Compound 274]
IC50: ≥ 500 nM

Cc1c(CN2CCC3(CC2)OC(C(N)=O)c2ccc(Cl)cc23)cnn1C (stereo not shown) [Compound 275]
IC50: ≥ 500 nM

Cc1nc(C)c(CN2CCC3(CC2)OC(C(N)=O)c2ccc(Cl)cc23)o1 (stereo not shown) [Compound 276]
IC50: ≥ 500 nM

CC(C)(O)[C@@H](O)Cn1cc(CN2CCC3(CC2)OC(C(N)=O)c2ccc(Cl)cc23)cn1 (stereo partly drawn) [Compound 277, 5-chloro-1′-[[1-[(2S)-2,3-dihydroxy-3-methyl-butyl]pyrazol-4-yl]methyl]spiro[1H-isobenzofuran-3,4′-piperidine]-1-carboxamide]
IC50: ≤ 50 nM

CC(C)(O)[C@H](O)Cn1cc(CN2CCC3(CC2)OC(C(N)=O)c2ccc(Cl)cc23)cn1 (stereo partly drawn) [Compound 278, 5-chloro-1′-[[1-[(2R)-2,3-dihydroxy-3-methyl-butyl]pyrazol-4-yl]methyl]spiro[1H-isobenzofuran-3,4′-piperidine]-1-carboxamide]
IC50: ≤ 50 nM

CC(CO)(CO)Cn1cc(CN2CCC3(CC2)OC(C(N)=O)c2ccc(Cl)cc23)cn1 (stereo not shown) [Compound 279, 5-chloro-1′-[[1-[3-hydroxy-2-(hydroxymethyl)-2-methyl-propyl]pyrazol-4-yl]methyl]spiro[1H-isobenzofuran-3,4′-piperidine]-1-carboxamide]
IC50: ≤ 50 nM

NC(=O)C1OC2(CCN(Cc3cnn(CC(O)C4(O)CCC4)c3)CC2)c2cc(Cl)ccc21 (stereo not shown) [Compound 280, 5-chloro-1′-[[1-[2-hydroxy-2-(1-hydroxycyclobutyl)ethyl]pyrazol-4-yl]methyl]spiro[1H-isobenzofuran-3,4′-piperidine]-1-carboxamide]
IC50: ≤ 50 nM

NC(=O)C1OC2(CCN(Cc3cnn(CC(O)C4(O)CCOCC4)c3)CC2)c2cc(Cl)ccc21 (stereo not shown) [Compound 281]
IC50: ≤ 50 nM

NC(=O)C1OC2(CCN(Cc3cnn(CC4(O)CCS(=O)(=O)CC4)c3)CC2)c2cc(Cl)ccc21 (stereo not shown) [Compound 282]
IC50: ≤ 50 nM

NC(=O)C1OC2(CCN(Cc3cnn(C[C@@H](O)CO)c3)CC2)c2cc(Cl)ccc21 (stereo partly shown) [Compound 283]
IC50: 50 to 500 nM

CN(C)C(=O)Cn1cc(CN2CCC3(CC2)OC(C(N)=O)c2ccc(Cl)cc23)cn1 (stereo not shown) [Compound 284]
IC50: 50 to 500 nM

NC(=O)Cn1cc(CN2CCC3(CC2)OC(C(N)=O)c2ccc(Cl)cc23)cn1 (stereo not shown) [Compound 285]
IC50: 50 to 500 nM

Cc1ccc2c(c1)C1(CCN(Cc3cnn(C)c3)CC1)OC2 [Compound 286, 5-methyl-1′-[(1-methylpyrazol-4-yl)methyl]spiro[1H-isobenzofuran-3,4′-piperidine]]
IC50: ≥ 500 nM

Cc1ccc2c(c1)C1(CCN(Cc3ccc(OCC(C)(C)N)nc3)CC1)OC2(C)C [Compound 288, 2-methyl-1-[[5-[(1,1,5-trimethylspiro[isobenzofuran-3,4′-piperidine]-1′-yl)methyl]-2-pyridyl]oxy]propan-2-amine]
IC50: 50 to 500 nM

Cc1ccc2c(c1)C1(CCN(Cc3cnn(CCS(C)(=O)=O)c3)CC1)OC2(C)C [Compound 289, 1,1,5-trimethyl-1′-[[1-(2-methylsulfonylethyl)pyrazol-4-yl]methyl]spiro[isobenzofuran-3,4′-piperidine]]
IC50: ≥ 500 nM
